# Data as given in PubChem BioAssay (NCI).
# “And” between values parts separate entries of the source, which are not always exact repeats. Identical values can stand only once.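 Protocol summary: plate cells (96-well), add compound at 5 concentrations, incubate 48 h, interpolate endpoints linearly. GI50 = concentration required for 50% inhibition of growth. TGI is the concentration that stops growth completely.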
# Columns and labels:
# Assay in all cases: NCI tumour cell line growth inhibition, 48 h
# KM12 colon = system: KM12 colon
# BT-549 breast = system: BT-549 breast
# NCI/ADR-RES ovarian = system: NCI/ADR-RES ovarian
# DU-145 prostate = system: DU-145 prostate
# MDA-MB-435 = system: MDA-MB-435
# MDA-MB-231 breast = system: MDA-MB-231 breast
# CAKI-1 renal = system: CAKI-1 renal
# MOLT-4 leukemia = system: MOLT-4 leukemia
# UACC-257 melanoma = system: UACC-257 melanoma
# SF-539 CNS = system: SF-539 CNS
Structure (SMILES),TGI (KM12 colon) [µM],TGI (BT-549 breast) [µM],TGI (NCI/ADR-RES ovarian) [µM],TGI (DU-145 prostate) [µM],TGI (MDA-MB-435) [µM],TGI (MDA-MB-231 breast) [µM],TGI (CAKI-1 renal) [µM],TGI (MOLT-4 leukemia),TGI (UACC-257 melanoma) [µM],TGI (SF-539 CNS) [µM],GI50 (KM12 colon) [µM],GI50 (BT-549 breast) [µM],GI50 (NCI/ADR-RES ovarian) [µM],GI50 (DU-145 prostate) [µM],GI50 (MDA-MB-435) [µM],GI50 (MDA-MB-231 breast) [µM],GI50 (CAKI-1 renal) [µM],GI50 (MOLT-4 leukemia) [µM],GI50 (UACC-257 melanoma) [µM],GI50 (SF-539 CNS) [µM]
CCCC(=O)OC(OC(=O)CCC)c1ccc([N+](=O)[O-])o1,> 100,> 100,> 100,> 100,47.4,68,38.4,98.4 µM,51.9,> 100,–,–,–,–,–,–,–,–,–,–
CC1=C(SCCC(=O)OC(C[Se]C2=C(C)C(=O)c3ccccc3C2=O)C(=O)NC(C)(C)C)C(=O)c2ccccc2C1=O (centres undefined),2.18,3.05,1.98,2.82,3.77,2.94,3.36,1.31 µM,3.2,2.75,0.86,1.64,0.701,1.49,1.77,1.49,1.65,0.274,1.76,1.44
O=C1C=CC(=O)c2c(O)c(N(CCCl)CCCl)c(Cl)c(O)c21,> 9.63,> 7.26,> 10,> 10,5.83,6.75,6.51,> 10 µM,5.23,> 7.9,–,–,–,–,–,–,–,–,–,–
CN(C)Cc1cc(C(C)(C)C)cc(CN(C)C)c1O,> 100,> 100,> 100,> 100,> 100,> 100,> 100,> 100 µM,> 100,> 100,–,–,–,–,–,–,–,–,–,–
C1CC[N-]CC1.CC(=N\O)/C(C)=N/O.CC(=N\O)/C(C)=N/O.C[CH-]C(C)O.[Co+2],> 100,79.7,> 100,> 100,51.7,64,57.8,42.2 µM,40.2,94.4,34.3,28.5,54.2,81.1,23.1,27.2,24,17.4,18.2,24
Cc1c2ccccc2c(C)n2c1nc1cc(Cl)c(Cl)cc12,> 100,> 100,–,> 100,> 100,> 100,> 100,8.62 µM and 46.5 µM,> 100,> 100,> 100,> 100,> 100,> 100,> 100,72.5,15.1,16,> 100,> 100
C=C1C(=O)OC2(C)CCC1CC1OC1(C)CCC=C(C)CCC2O (centres undefined),> 100,> 100,> 100,> 100,> 100,> 100,> 100,> 100 µM,> 100,> 100,–,–,–,–,–,–,–,–,–,–
CNc1nc(-c2ccc3c(N)n[nH]c3c2)cc(N2C[C@@H](C(=O)NC3CCCCC3)CC[C@H]2C)n1,22.4,12.3,41.3,21.3,14.4,15.7,20.6,> 32.5 µM,16.8,17.8,8.37,1.91,13.3,5.91,1.11,2.61,1.14,1.84,1.3,3.76
COc1cc2c(=O)n(CC3CCCCC3)c3c4cc[nH]c4ncc3c2cc1OC,34.9,14.7,34.5,19.6,> 50,7.59,7.39,> 50 µM,> 50,3.08,0.0362,0.807,3.74,4.96,4.15,1.13,1.19,5.64,23.8,0.681
COc1ccc(C2C3=C(COC3=O)N(CCO)c3cc4c(cc32)CCC4)cc1 (centres undefined),> 50,25.2,25.8,20.2,5.09,> 50,27.7,> 50 µM,> 50,28.5,2.31,2.38,3.89,5.04,1.13,10.9,3.1,2.2,4.34,5.09
COc1ccc(/C=C/C(=O)c2ccc(Nc3nc(Nc4ccc(F)cc4)nc(Nc4ccc(F)cc4)n3)cc2)cc1,29.3,36.4,33,> 100,31.6,> 100,> 100,21.9 µM,76.4,60.1,7.62,14,5.63,40.2,5.8,35.3,38.3,3.11,19,23.2
NC1=C(O)C(=O)C(c2c[nH]c3ccc(OCc4ccccc4)cc23)O1 (centres undefined),> 100,> 100,> 100,> 100,> 100,> 100,> 100,> 100 µM,> 100,> 100,–,–,–,–,–,–,–,–,–,–
Cn1cccc1-c1cc(-c2ccccc2)nc(N)c1C#N,> 100,> 100,> 100,> 100,> 100,> 100,> 100,> 100 µM,> 100,> 100,> 100,67.5,> 100,97.5,> 100,> 82,> 100,> 70,> 100,> 58.3
Nc1ccn(C2CC3OCC3O2)c(=O)n1 (centres undefined),> 100,> 100,> 100,> 100,> 100,> 100,> 100,> 100 µM,> 100,> 100,–,–,–,–,–,–,–,–,–,–
O=S(=O)(Nc1ccc(Cl)c(Cl)c1)c1ccc(-c2cnc(C3CC3)o2)cc1,15.4,18.2,4.91,13.9,0.674,15.8,16.7,> 63.6 µM,27.1,3.64,0.371,0.911,0.345,0.736,0.139,1.59,0.384,0.659,4.62,0.399
